# Measured values: US20230365592A1 (Agios Pharmaceuticals, Inc., priority 2022, published 2023)
# Target: T1, human PAH with the R408W mutation (Homo sapiens, UniProt P00439, R408W)
# T1 construct: expressed in transfected cells
# T1 sequence (P00439 1-452 R408W): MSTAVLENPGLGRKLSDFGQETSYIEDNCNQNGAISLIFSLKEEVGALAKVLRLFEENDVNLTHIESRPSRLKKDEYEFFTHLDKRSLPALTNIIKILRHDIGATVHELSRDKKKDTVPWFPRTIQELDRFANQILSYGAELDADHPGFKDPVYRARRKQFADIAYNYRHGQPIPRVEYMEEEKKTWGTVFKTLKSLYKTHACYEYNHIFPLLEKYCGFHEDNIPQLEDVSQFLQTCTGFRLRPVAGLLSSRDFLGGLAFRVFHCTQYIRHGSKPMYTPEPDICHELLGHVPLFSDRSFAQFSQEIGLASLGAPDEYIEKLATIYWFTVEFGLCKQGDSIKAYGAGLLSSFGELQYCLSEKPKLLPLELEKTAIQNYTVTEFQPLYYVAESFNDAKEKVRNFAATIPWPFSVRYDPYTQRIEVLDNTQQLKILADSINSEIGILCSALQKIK
# Test: Cell Based Phenylalanine Flux Assay;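 also: after compound treatment, cells received sepiapterin plus isotope-labelled Phenylalanine for 4 hours, then labelled Tyrosine in the medium was quantified, 10-point 2-fold dilution series run in duplicate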
# Details: A375 cells expressing human R408W PAH; 24 hrs compound incubation; 13C-Tyrosine by LC-MS; average where tested multiple times; read-out: AC50
row,Structure (SMILES),AC50 [µM]
1,"FC(F)(F)c1cnc(N2CCc3[nH]cnc3[C@H]2c2cc3ccccn3n2)nc1 [Example 1752, (S)-4-(pyrazolo[1,5-a]pyridin-2-yl)-5-(5-(trifluoromethyl)pyrimidin-2-yl)-4,5,6,7-tetrahydro-1H-imidazo[4,5-c]pyridine]",< 0.5
2,"Cc1cccn2nc([C@@H]3c4nc[nH]c4CCN3c3ncc(C(F)(F)F)cn3)cc12 [Example 1754, (S)-4-(4-methylpyrazolo[1,5-a]pyridin-2-yl)-5-(5-(trifluoromethyl)pyrimidin-2-yl)-4,5,6,7-tetrahydro-1H-imidazo[4,5-c]pyridine]",< 0.5
3,"Cc1cccn2nc([C@H]3c4nc[nH]c4CCN3c3ncc(C(F)(F)F)cn3)cc12 [Example 1755, (R)-4-(4-methylpyrazolo[1,5-a]pyridin-2-yl)-5-(5-(trifluoromethyl)pyrimidin-2-yl)-4,5,6,7-tetrahydro-1H-imidazo[4,5-c]pyridine]",> 5
4,"CC(C)(C)c1nnc(C(=O)N2CCc3[nH]cnc3[C@H]2c2cc3c(OC(F)(F)F)cccn3n2)o1 [Example 1759, (S)-(5-(tert-butyl)-1,3,4-oxadiazol-2-yl)(4-(4-(trifluoromethoxy)pyrazolo[1,5-a]pyridin-2-yl)-6,7-dihydro-1H-imidazo[4,5-c]pyridin-5(4H)-yl)methanone]",0.5 to 1
5,"O=C(c1nnc(-c2ccccn2)o1)N1CCc2[nH]cnc2[C@H]1c1cc2c(OC(F)(F)F)cccn2n1 [Example 1760, (S)-(5-(pyridin-2-yl)-1,3,4-oxadiazol-2-yl)(4-(4-(trifluoromethoxy)pyrazolo[1,5-a]pyridin-2-yl)-6,7-dihydro-1H-imidazo[4,5-c]pyridin-5(4H)-yl)methanone]",< 0.5
6,"FC(F)c1cccn2nc([C@@H]3c4nc[nH]c4CCN3c3ncccn3)cc12 [Example 1762, (S)-4-(4-(difluoromethyl)pyrazolo[1,5-a]pyridin-2-yl)-5-(pyrimidin-2-yl)-4,5,6,7-tetrahydro-1H-imidazo[4,5-c]pyridine]",< 0.5
7,"FC(F)c1cccn2nc([C@H]3c4nc[nH]c4CCN3c3ncccn3)cc12 [Example 1763, (R)-4-(4-(difluoromethyl)pyrazolo[1,5-a]pyridin-2-yl)-5-(pyrimidin-2-yl)-4,5,6,7-tetrahydro-1H-imidazo[4,5-c]pyridine]",1 to 5
8,"FC(F)(F)c1cccc2cc([C@H]3c4nc[nH]c4CCN3c3ncccn3)nn12 [Example 1764, (R)-5-(pyrimidin-2-yl)-4-(7-(trifluoromethyl)pyrazolo[1,5-a]pyridin-2-yl)-4,5,6,7-tetrahydro-1H-imidazo[4,5-c]pyridine]",1 to 5
9,"FC(F)c1cccn2nc([C@@H]3c4nc[nH]c4CCN3c3nnc(C(F)(F)F)o3)cc12 [Example 1767, (S)-2-(4-(4-(difluoromethyl)pyrazolo[1,5-a]pyridin-2-yl)-6,7-dihydro-1H-imidazo[4,5-c]pyridin-5(4H)-yl)-5-(trifluoromethyl)-1,3,4-oxadiazole]",< 0.5
10,"FC(F)(F)c1cnc(N2CCc3[nH]cnc3[C@H]2c2cc3c(C(F)(F)F)cccn3n2)nc1 [Example 1774, (S)-4-(4-(trifluoromethyl)pyrazolo[1,5-a]pyridin-2-yl)-5-(5-(trifluoromethyl)pyrimidin-2-yl)-4,5,6,7-tetrahydro-1H-imidazo[4,5-c]pyridine]",< 0.5
11,"FC(F)(F)c1cnc(N2CCc3[nH]cnc3[C@@H]2c2cc3c(C(F)(F)F)cccn3n2)nc1 [Example 1775, (R)-4-(4-(trifluoromethyl)pyrazolo[1,5-a]pyridin-2-yl)-5-(5-(trifluoromethyl)pyrimidin-2-yl)-4,5,6,7-tetrahydro-1H-imidazo[4,5-c]pyridine]",> 5
12,"FC(F)c1cccn2nc([C@@H]3c4nc[nH]c4CCN3c3ncc(C(F)(F)F)cn3)cc12 [Example 1776, (S)-4-(4-(difluoromethyl)pyrazolo[1,5-a]pyridin-2-yl)-5-(5-(trifluoromethyl)pyrimidin-2-yl)-4,5,6,7-tetrahydro-1H-imidazo[4,5-c]pyridine]",< 0.5
13,"FC(F)c1cccn2nc([C@H]3c4nc[nH]c4CCN3c3ncc(C(F)(F)F)cn3)cc12 [Example 1777, (R)-4-(4-(difluoromethyl)pyrazolo[1,5-a]pyridin-2-yl)-5-(5-(trifluoromethyl)pyrimidin-2-yl)-4,5,6,7-tetrahydro-1H-imidazo[4,5-c]pyridine]",> 5
14,"FC(F)(F)c1cnc(N2CCc3[nH]cnc3[C@H]2c2cc3c(Cl)cccn3n2)nc1 [Example 1780, (S)-4-(4-chloropyrazolo[1,5-a]pyridin-2-yl)-5-(5-(trifluoromethyl)pyrimidin-2-yl)-4,5,6,7-tetrahydro-1H-imidazo[4,5-c]pyridine]",< 0.5
15,"FC(F)(F)c1cnc(N2CCc3[nH]cnc3[C@@H]2c2cc3c(Cl)cccn3n2)nc1 [Example 1781, (R)-4-(4-chloropyrazolo[1,5-a]pyridin-2-yl)-5-(5-(trifluoromethyl)pyrimidin-2-yl)-4,5,6,7-tetrahydro-1H-imidazo[4,5-c]pyridine]",> 5
16,"O=C(c1nnc(-c2cnn(C(F)F)c2)o1)N1CCc2[nH]cnc2[C@H]1c1cc2c(OC(F)(F)F)cccn2n1 [Example 1782, (S)-(5-(1-(difluoromethyl)-1H-pyrazol-4-yl)-1,3,4-oxadiazol-2-yl)(4-(4-(trifluoromethoxy)pyrazolo[1,5-a]pyridin-2-yl)-6,7-dihydro-1H-imidazo[4,5-c]pyridin-5(4H)-yl)methanone]",0.5 to 1

# Now from value to molecule:
row,AC50 [µM],Structure (SMILES)
1,< 0.5,"O=C(c1cnn2cc(C3CC3)ccc12)N1CCc2[nH]cnc2[C@H]1c1cc2c(C(F)F)cccn2n1 [Example 1742, (S)-(6-cyclopropylpyrazolo[1,5-a]pyridin-3-yl)(4-(4-(difluoromethyl)pyrazolo[1,5-a]pyridin-2-yl)-6,7-dihydro-1H-imidazo[4,5-c]pyridin-5(4H)-yl)methanone]"
2,1 to 5,"O=C(c1cnn2cc(C3CC3)ccc12)N1CCc2[nH]cnc2[C@@H]1c1cc2c(C(F)F)cccn2n1 [Example 1743, (R)-(6-cyclopropylpyrazolo[1,5-a]pyridin-3-yl)(4-(4-(difluoromethyl)pyrazolo[1,5-a]pyridin-2-yl)-6,7-dihydro-1H-imidazo[4,5-c]pyridin-5(4H)-yl)methanone]"
3,1 to 5,"O=C(c1cnn2cc(C3CC3)ccc12)N1CCc2[nH]cnc2[C@H]1c1cc2cccc(Cl)n2n1 [Example 1744, (S)-(4-(7-chloropyrazolo[1,5-a]pyridin-2-yl)-6,7-dihydro-1H-imidazo[4,5-c]pyridin-5(4H)-yl)(6-cyclopropylpyrazolo[1,5-a]pyridin-3-yl)methanone]"
4,> 5,"O=C(c1cnn2cc(C3CC3)ccc12)N1CCc2[nH]cnc2[C@@H]1c1cc2cccc(Cl)n2n1 [Example 1745, (R)-(4-(7-chloropyrazolo[1,5-a]pyridin-2-yl)-6,7-dihydro-1H-imidazo[4,5-c]pyridin-5(4H)-yl)(6-cyclopropylpyrazolo[1,5-a]pyridin-3-yl)methanone]"
5,> 5,"CN(C)c1ccc2c(C(=O)N3CCc4[nH]cnc4[C@@H]3c3cc4c(C(F)(F)F)cccn4n3)cnn2c1 [Example 1747, (R)-(6-(dimethylamino)pyrazolo[1,5-a]pyridin-3-yl)(4-(4-(trifluoromethyl)pyrazolo[1,5-a]pyridin-2-yl)-6,7-dihydro-1H-imidazo[4,5-c]pyridin-5(4H)-yl)methanone]"
6,0.5 to 1,"FC(F)(F)c1cccc2cc([C@@H]3c4nc[nH]c4CCN3c3ncccn3)nn12 [Example 1765, (S)-5-(pyrimidin-2-yl)-4-(7-(trifluoromethyl)pyrazolo[1,5-a]pyridin-2-yl)-4,5,6,7-tetrahydro-1H-imidazo[4,5-c]pyridine]"
7,< 0.5,"O=C(c1cnn2cc(C3CC3)ccc12)N1CCc2[nH]cnc2[C@H]1c1cc2c(Cl)cccn2n1 [Example 1768, (S)-(4-(4-chloropyrazolo[1,5-a]pyridin-2-yl)-6,7-dihydro-1H-imidazo[4,5-c]pyridin-5(4H)-yl)(6-cyclopropylpyrazolo[1,5-a]pyridin-3-yl)methanone]"
8,1 to 5,"O=C(c1cnn2cc(C3CC3)ccc12)N1CCc2[nH]cnc2[C@@H]1c1cc2c(Cl)cccn2n1 [Example 1769, (R)-(4-(4-chloropyrazolo[1,5-a]pyridin-2-yl)-6,7-dihydro-1H-imidazo[4,5-c]pyridin-5(4H)-yl)(6-cyclopropylpyrazolo[1,5-a]pyridin-3-yl)methanone]"
9,0.5 to 1,"CN(C)c1ccc2c(C(=O)N3CCc4[nH]cnc4[C@H]3c3cc4c(C(F)F)cccn4n3)cnn2c1 [Example 1770, (S)-(4-(4-(difluoromethyl)pyrazolo[1,5-a]pyridin-2-yl)-6,7-dihydro-1H-imidazo[4,5-c]pyridin-5(4H)-yl)(6-(dimethylamino)pyrazolo[1,5-a]pyridin-3-yl)methanone]"
10,> 5,"CN(C)c1ccc2c(C(=O)N3CCc4[nH]cnc4[C@@H]3c3cc4c(C(F)F)cccn4n3)cnn2c1 [Example 1771, (R)-(4-(4-(difluoromethyl)pyrazolo[1,5-a]pyridin-2-yl)-6,7-dihydro-1H-imidazo[4,5-c]pyridin-5(4H)-yl)(6-(dimethylamino)pyrazolo[1,5-a]pyridin-3-yl)methanone]"
11,> 5,"CN(C)c1ccc2c(C(=O)N3CCc4[nH]cnc4[C@@H]3c3cc4c(F)cccn4n3)cnn2c1 [Example 1773, (R)-(6-(dimethylamino)pyrazolo[1,5-a]pyridin-3-yl)(4-(4-fluoropyrazolo[1,5-a]pyridin-2-yl)-6,7-dihydro-1H-imidazo[4,5-c]pyridin-5(4H)-yl)methanone]"
